According to ChEMBL document CHEMBL3044852, “Synthesis of N-hydroxycinnamoyl amino acid ester analogues and their free radical scavenging and antioxidative activities” (Med Chem Res, 2012):

Legend:
[1] = Antioxidant activity against AAPH-induced hemolysis in Homo sapiens (human) RBC assessed as inhibition time at 10 uM by spectrophotometry; assay type: functional, Erythrocyte
[2] = Antioxidant activity assessed as DPPH scavenging activity after 30 min by UV-vis spectroscopy; assay type: functional

CCOC(=O)CNC(=O)/C=C/c1ccc(O)c(O)c1
Time [1]: 180 min | IC50 [2]: 12.8 µM

CCOC(=O)CNC(=O)/C=C/c1ccc(O)c(OC)c1
Time [1]: 193 min | IC50 [2]: 64.6 µM

CCOC(=O)CNC(=O)/C=C/c1ccc(O)cc1
Time [1]: 138 min | IC50 [2]: > 200 µM

CCOC(=O)[C@H](Cc1ccccc1)NC(=O)/C=C/c1ccc(O)c(O)c1
IC50 [2]: 1.45 µM

CCOC(=O)[C@H](Cc1ccccc1)NC(=O)/C=C/c1ccc(O)c(OC)c1
Time [1]: 198 min | IC50 [2]: 52.4 µM

CCOC(=O)[C@H](Cc1ccccc1)NC(=O)/C=C\c1ccc(O)cc1
IC50 [2]: > 200 µM

COC(=O)[C@H](Cc1ccc(O)cc1)NC(=O)/C=C/c1ccc(O)cc1
IC50 [2]: > 200 µM

CCOC(=O)[C@@H](NC(=O)/C=C/c1ccc(O)c(OC)c1)C(C)C
IC50 [2]: 87.2 µM

O=C1O[C@H]([C@@H](O)CO)C(O)=C1O [ASCORBIC ACID]
IC50 [2]: 29.6 µM

O=C(O)/C=C/c1ccc(O)c(O)c1 [CAFFEIC ACID]
IC50 [2]: 18.2 µM

O=C(O)/C=C/c1ccc(O)cc1 [COUMARIC ACID]
IC50 [2]: > 200 µM

CCOC(=O)/C=C/c1ccc(O)c(O)c1 [ETHYL CAFFEATE]
IC50 [2]: 49 µM

CCOC(=O)/C=C/c1ccc(O)c(OC)c1 [ETHYL FERULATE]
Time [1]: 150 min | IC50 [2]: 150 µM

CCOC(=O)/C=C/c1ccc(O)cc1 [ETHYL P-COUMARATE]
IC50 [2]: > 200 µM

COc1cc(/C=C/C(=O)O)ccc1O [FERULATE]
Time [1]: 148 min | IC50 [2]: 50.1 µM
